In patent US20260262643A1, “HERBICIDAL BENZOXAZINES” (FMC CORPORATION, priority 2022, published 2026):

Assays:
pigweed, palmer [1] = test: Test C preemergence; assay type: in vivo, Amaranthus palmeri; conditions: 0 to 100 scale (0 no effect, 100 complete control)
In short: (§1)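 Pre: seeds in loam/sand, directed soil spray. Post: 1–2 leaf plants, 2–10 cm. Cmpd in non-phytotoxic solvent + surfactant. Greenhouse 10 d; visual rating vs untreated, 0 = none, 100 = complete control.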

ragweed [2] = test: Test C postemergence; assay type: in vivo, Ambrosia artemisiifolia; conditions: 10 days
In short: as §1

rice = test: Test D flooded paddy test; assay type: in vivo, Oryza sativa; conditions: 250 g ai/ha, applied to paddy water, visual rating after 13 to 14 days, scale 0 to 100 (0 no effect, 100 complete control)
In short: (§2)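 Plants at the 2-leaf stage were grown in pots flooded to 3 cm, and compound was applied directly into the paddy water, with depth kept throughout. After 13–14 days in a greenhouse, injury was rated visually against untreated controls on a 0–100 scale (100 = complete control); a dash means not tested.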

oat, wild [3] = test: Test C postemergence; assay type: in vivo, Avena fatua; conditions: 10 days
In short: as §1

kochia [4] = test: Test C preemergence; assay type: in vivo, Bassia scoparia; conditions: 0 to 100 scale (0 no effect, 100 complete control)
In short: as §1

barnyardgrass [5] = test: Test C preemergence; assay type: in vivo, Echinochloa crusgalli; conditions: 0 to 100 scale (0 no effect, 100 complete control)
In short: as §1

ryegrass, Italian [6] = test: Test C postemergence; assay type: in vivo, Lolium multiflorum; conditions: 10 days
In short: as §1

green foxtail [7] = test: Test C preemergence; assay type: in vivo, Setaria viridis; conditions: 0 to 100 scale (0 no effect, 100 complete control)
In short: as §1

sedge, umbrella = test: Test D flooded paddy test; assay type: in vivo, Cyperus difformis; conditions: 250 g ai/ha, applied to paddy water, visual rating after 13 to 14 days, scale 0 to 100 (0 no effect, 100 complete control)
In short: as §2

blackgrass [8] = test: Test C preemergence; assay type: in vivo, Alopecurus myosuroides; conditions: 0 to 100 scale (0 no effect, 100 complete control)
In short: as §1

horseweed = test: Test C postemergence; assay type: in vivo, Erigeron canadensis; conditions: 10 days
In short: as §1

corn [9] = test: Test C postemergence; assay type: in vivo, Zea mays; conditions: 10 days
In short: as §1

wheat [10] = test: Test C preemergence; assay type: in vivo, Triticum aestivum; conditions: 0 to 100 scale (0 no effect, 100 complete control)
In short: as §1

barnyardgrass [11] = test: Test C postemergence; assay type: in vivo, Echinochloa crusgalli; conditions: 10 days
In short: as §1

pigweed, palmer [12] = test: Test C postemergence; assay type: in vivo, Amaranthus palmeri; conditions: 10 days
In short: as §1

kochia [13] = test: Test C postemergence; assay type: in vivo, Bassia scoparia; conditions: 10 days
In short: as §1

ryegrass, Italian [14] = test: Test C preemergence; assay type: in vivo, Lolium multiflorum; conditions: 0 to 100 scale (0 no effect, 100 complete control)
In short: as §1

galium = test: Test C postemergence; assay type: in vivo, Galium aparine; conditions: 10 days
In short: as §1

blackgrass [15] = test: Test C postemergence; assay type: in vivo, Alopecurus myosuroides; conditions: 10 days
In short: as §1

corn [16] = test: Test C preemergence; assay type: in vivo, Zea mays; conditions: 0 to 100 scale (0 no effect, 100 complete control)
In short: as §1

soybean [17] = test: Test C postemergence; assay type: in vivo, Glycine max; conditions: 10 days
In short: as §1

oat, wild [18] = test: Test C preemergence; assay type: in vivo, Avena fatua; conditions: 0 to 100 scale (0 no effect, 100 complete control)
In short: as §1

soybean [19] = test: Test C preemergence; assay type: in vivo, Glycine max; conditions: 0 to 100 scale (0 no effect, 100 complete control)
In short: as §1

green foxtail [20] = test: Test C postemergence; assay type: in vivo, Setaria viridis; conditions: 10 days
In short: as §1

wheat [21] = test: Test C postemergence; assay type: in vivo, Triticum aestivum; conditions: 10 days
In short: as §1

ragweed [22] = test: Test C preemergence; assay type: in vivo, Ambrosia artemisiifolia; conditions: 0 to 100 scale (0 no effect, 100 complete control)
In short: as §1

barnyardgrass [23] = test: Test D flooded paddy test; assay type: in vivo, Echinochloa crus-galli; conditions: 250 g ai/ha, applied to paddy water, visual rating after 13 to 14 days, scale 0 to 100 (0 no effect, 100 complete control)
In short: as §2

ducksalad = test: Test D flooded paddy test; assay type: in vivo, Heteranthera limosa; conditions: 250 g ai/ha, applied to paddy water, visual rating after 13 to 14 days, scale 0 to 100 (0 no effect, 100 complete control)
In short: as §2

[24] = Preemergence, 500 g ai/ha, visual rating after 10 days
[25] = Test C, preemergence, 125 g ai/ha
[26] = 125 g ai/ha, postemergence, 0 to 100 scale, 0 no effect, 100 complete control
[27] = Postemergence, 500 g ai/ha, visual 0 to 100 scale (0 no effect, 100 complete control)

CCc1ncn(-c2ccc(C)c(C(=O)N3CC(C(F)(F)F)Oc4c(Cl)cccc43)c2)n1 (single isomer, unassigned) [Compound 218]
Plant response rating, Pigweed, Palmer (pigweed, palmer [1]; [24]): 100 | Pigweed, Palmer plant response rating (pigweed, palmer [1]; [25]): 100 | Plant response rating, Ragweed (ragweed [2]; [26]): 80 | Plant response rating, Ragweed (ragweed [2]; [27]): 80 | Plant response rating, Rice (Flood) (rice): 0 | Plant response rating, Oat, Wild (oat, wild [3]; [26]): 30 | Plant response rating, Oat, Wild (oat, wild [3]; [27]): 80 | Plant response rating, Kochia (kochia [4]; [24]): 100 | Kochia plant response rating (kochia [4]; [25]): 90 | Plant response rating, Barnyardgrass (barnyardgrass [5]; [24]): 100 | Barnyardgrass plant response rating (barnyardgrass [5]; [25]): 100 | Plant response rating, Ryegrass, Italian (ryegrass, Italian [6]; [26]): 80 | Plant response rating, Ryegrass, Italian (ryegrass, Italian [6]; [27]): 90 | Plant response rating, Foxtail, Green (green foxtail [7]; [24]): 100 | Foxtail, Green plant response rating (green foxtail [7]; [25]): 100 | Plant response rating, Sedge, Umbrella (Flood) (sedge, umbrella): 80 | Plant response rating, Blackgrass (blackgrass [8]; [24]): 80 | Blackgrass plant response rating (blackgrass [8]; [25]): 40 | Plant response rating, Horseweed (horseweed; [26]): 0 | Plant response rating, Horseweed (horseweed; [27]): 70 | Plant response rating, Corn (corn [9]; [26]): 70 | Plant response rating, Corn (corn [9]; [27]): 70 | Plant response rating, Wheat (wheat [10]; [24]): 80 | Wheat plant response rating (wheat [10]; [25]): 30 | Plant response rating, Barnyardgrass (barnyardgrass [11]; [26]): 100 | Plant response rating, Barnyardgrass (barnyardgrass [11]; [27]): 100 | Plant response rating, Pigweed, Palmer (pigweed, palmer [12]; [26]): 90 | Plant response rating, Pigweed, Palmer (pigweed, palmer [12]; [27]): 90 | Plant response rating, Kochia (kochia [13]; [26]): 90 | Plant response rating, Kochia (kochia [13]; [27]): 100 | Plant response rating, Ryegrass, Italian (ryegrass, Italian [14]; [24]): 90 | Ryegrass, Italian plant response rating (ryegrass, Italian [14]; [25]): 90 | Plant response rating, Galium (galium; [26]): 100 | Plant response rating, Galium (galium; [27]): 100 | Plant response rating, Blackgrass (blackgrass [15]; [26]): 90 | Plant response rating, Blackgrass (blackgrass [15]; [27]): 100 | Plant response rating, Corn (corn [16]; [24]): 60 | Corn plant response rating (corn [16]; [25]): 20 | Plant response rating, Soybean (soybean [17]; [26]): 100 | Plant response rating, Soybean (soybean [17]; [27]): 100 | Plant response rating, Oat, Wild (oat, wild [18]; [24]): 90 | Oat, Wild plant response rating (oat, wild [18]; [25]): 60 | Plant response rating, Soybean (soybean [19]; [24]): 100 | Soybean plant response rating (soybean [19]; [25]): 90 | Plant response rating, Foxtail, Green (green foxtail [20]; [26]): 90 | Plant response rating, Foxtail, Green (green foxtail [20]; [27]): 90 | Plant response rating, Wheat (wheat [21]; [26]): 60 | Plant response rating, Wheat (wheat [21]; [27]): 90 | Plant response rating, Ragweed (ragweed [22]; [24]): 80 | Ragweed plant response rating (ragweed [22]; [25]): 20 | Plant response rating, Barnyardgrass (Flood) (barnyardgrass [23]): 0 | Plant response rating, Ducksalad (Flood) (ducksalad): 60
